Data as given in patent US12077503B2, “Substituted cyclic amides and their use as herbicides” (FMC CORPORATION, priority 2015, dated 2024).

Experiments:
Type in all cases: in vivo
[1] = system: Galium (catchweed bedstraw, Galium aparine); assay: Test A postemergence; conditions: Galium, post-emergence, 240 h, Postemergence, read-out: Galium plant response rating (0 to 100 scale); for pest or weed control at 125 g/ha: 125 g ai/ha, visual rating about 10 d after treatment; for pest or weed control at 31 g/ha: 31 g ai/ha, 0 is no effect, 100 is complete control
Procedure, shortened: (§1)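 Seeds sprayed preemergence with a directed soil spray, or plants at 2 to 10 cm height and one- to two-leaf stage sprayed postemergence, with test chemicals in a non-phytotoxic solvent mixture containing surfactant, in loam soil–sand blend. Injury rated visually against untreated controls after about 10 d in greenhouse, 0 (no effect) to 100 (complete control).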

[2] = system: Kochia (Kochia scoparia); assay: Test A postemergence; conditions: Bassia scoparia, post-emergence, 240 h, Postemergence, read-out: Kochia plant response rating (0 to 100 scale); for pest or weed control at 125 g/ha: 125 g ai/ha, visual rating about 10 d after treatment; for pest or weed control at 31 g/ha: 31 g ai/ha, 0 is no effect, 100 is complete control
Procedure, shortened: as §1

[3] = system: ragweed (common ragweed, Ambrosia elatior); assay: Test A postemergence; conditions: Ambrosia artemisiifolia, post-emergence, 240 h, Postemergence, read-out: Ragweed plant response rating (0 to 100 scale); for pest or weed control at 125 g/ha: 125 g ai/ha, visual rating about 10 d after treatment; for pest or weed control at 31 g/ha: 31 g ai/ha, 0 is no effect, 100 is complete control
Procedure, shortened: as §1

[4] = system: giant foxtail (Setaria faberii); assay: Test A postemergence; conditions: Setaria faberi, post-emergence, 240 h, Postemergence, read-out: Foxtail, Giant plant response rating (0 to 100 scale); for pest or weed control at 125 g/ha: 125 g ai/ha, visual rating about 10 d after treatment; for pest or weed control at 31 g/ha: 31 g ai/ha, 0 is no effect, 100 is complete control
Procedure, shortened: as §1

[5] = system: blackgrass (Alopecurus myosuroides); assay: Test A postemergence; conditions: Alopecurus myosuroides, post-emergence, 240 h, Postemergence, read-out: Blackgrass plant response rating (0 to 100 scale); for pest or weed control at 125 g/ha: 125 g ai/ha, visual rating about 10 d after treatment; for pest or weed control at 31 g/ha: 31 g ai/ha, 0 is no effect, 100 is complete control
Procedure, shortened: as §1

[6] = system: barnyardgrass (Echinochloa crus-galli); assay: Test A postemergence; conditions: Echinochloa crus-galli, post-emergence, 240 h, Postemergence; for pest or weed control at 125 g/ha: 125 g ai/ha, visual rating about 10 d after treatment, read-out: Barnyardgrass plant response rating (0 to 100 scale, 0 no effect, 100 complete control); for pest or weed control at 31 g/ha: 31 g ai/ha, 0 is no effect, 100 is complete control, read-out: Barnyardgrass plant response rating (0 to 100 scale)
Procedure, shortened: as §1

[7] = system: corn (Zea mays); assay: Test A postemergence; conditions: Zea mays, post-emergence, 240 h, Postemergence, read-out: Corn plant response rating (0 to 100 scale); for plant injury at 125 g/ha: 125 g ai/ha, visual rating about 10 d after treatment; for plant injury at 31 g/ha: 31 g ai/ha, 0 is no effect, 100 is complete control
Procedure, shortened: as §1

[8] = system: pigweed (Amaranthus retroflexus); assay: Test A postemergence; conditions: Amaranthus retroflexus, post-emergence, 240 h, Postemergence, read-out: Pigweed plant response rating (0 to 100 scale); for pest or weed control at 125 g/ha: 125 g ai/ha, visual rating about 10 d after treatment; for pest or weed control at 31 g/ha: 31 g ai/ha, 0 is no effect, 100 is complete control
Procedure, shortened: as §1

[9] = system: wheat (Triticum aestivum); assay: Test A postemergence; conditions: Triticum aestivum, post-emergence, 240 h, Postemergence, read-out: Wheat plant response rating (0 to 100 scale); for plant injury at 125 g/ha: 125 g ai/ha, visual rating about 10 d after treatment; for plant injury at 31 g/ha: 31 g ai/ha, 0 is no effect, 100 is complete control
Procedure, shortened: as §1

[10] = system: ryegrass, Italian (Italian ryegrass, Lolium multiflorum); assay: Test A postemergence; conditions: Lolium multiflorum, post-emergence, 240 h, Postemergence, read-out: Ryegrass, Italian plant response rating (0 to 100 scale); for pest or weed control at 125 g/ha: 125 g ai/ha, visual rating about 10 d after treatment; for pest or weed control at 31 g/ha: 31 g ai/ha, 0 is no effect, 100 is complete control
Procedure, shortened: as §1

[11] = system: Kochia (Kochia scoparia); assay: Test A preemergence; conditions: Bassia scoparia, pre-emergence, 240 h, Preemergence; for pest or weed control at 31 g/ha: 31 g ai/ha, 0 to 100 scale where 0 is no effect and 100 is complete control, read-out: Kochia plant response rating; for pest or weed control at 125 g/ha: 125 g ai/ha, 0 to 100 scale (0 no effect, 100 complete control), read-out: Plant response rating, Kochia
Procedure, shortened: as §1

[12] = system: ragweed (common ragweed, Ambrosia elatior); assay: Test A preemergence; conditions: Ambrosia artemisiifolia, pre-emergence, 240 h, Preemergence; for pest or weed control at 31 g/ha: 31 g ai/ha, 0 to 100 scale where 0 is no effect and 100 is complete control, read-out: Ragweed plant response rating; for pest or weed control at 125 g/ha: 125 g ai/ha, 0 to 100 scale (0 no effect, 100 complete control), read-out: Plant response rating, Ragweed
Procedure, shortened: as §1

[13] = system: barnyardgrass (Echinochloa crus-galli); assay: Test A preemergence; conditions: Echinochloa crus-galli, pre-emergence, 240 h, Preemergence; for pest or weed control at 31 g/ha: 31 g ai/ha, 0 to 100 scale where 0 is no effect and 100 is complete control, read-out: Barnyardgrass plant response rating; for pest or weed control at 125 g/ha: 125 g ai/ha, 0 to 100 scale (0 no effect, 100 complete control), read-out: Plant response rating, Barnyardgrass
Procedure, shortened: as §1

[14] = system: pigweed (Amaranthus retroflexus); assay: Test A preemergence; conditions: Amaranthus retroflexus, pre-emergence, 240 h, Preemergence; for pest or weed control at 31 g/ha: 31 g ai/ha, 0 to 100 scale where 0 is no effect and 100 is complete control, read-out: Pigweed plant response rating; for pest or weed control at 125 g/ha: 125 g ai/ha, 0 to 100 scale (0 no effect, 100 complete control), read-out: Plant response rating, Pigweed
[15] = system: ryegrass, Italian (Italian ryegrass, Lolium multiflorum); assay: Test A preemergence; conditions: Lolium multiflorum, pre-emergence, 240 h, Preemergence; for pest or weed control at 31 g/ha: 31 g ai/ha, 0 to 100 scale where 0 is no effect and 100 is complete control, read-out: Ryegrass, Italian plant response rating; for pest or weed control at 125 g/ha: 125 g ai/ha, 0 to 100 scale (0 no effect, 100 complete control), read-out: Plant response rating, Ryegrass, Italian
Procedure, shortened: as §1

CN1C[C@H](c2csc3c2CCC(F)(F)C3)[C@@H](C(=O)Nc2ccc(F)c(F)c2F)C1=O (racemic) [Compound 1368]
40%: pest or weed control at 125 g/ha [4] | pest or weed control at 125 g/ha [10]
0%: pest or weed control at 31 g/ha [1] | pest or weed control at 31 g/ha [2] | pest or weed control at 125 g/ha [3] | pest or weed control at 31 g/ha [3] | pest or weed control at 31 g/ha [4] | pest or weed control at 31 g/ha [5] | plant injury at 125 g/ha [7] | plant injury at 31 g/ha [7] | pest or weed control at 125 g/ha [8] | pest or weed control at 31 g/ha [8] | plant injury at 125 g/ha [9] | plant injury at 31 g/ha [9] | pest or weed control at 31 g/ha [11] | pest or weed control at 125 g/ha [11] | pest or weed control at 31 g/ha [12] | pest or weed control at 125 g/ha [12] | pest or weed control at 31 g/ha [13] | pest or weed control at 31 g/ha [14] | pest or weed control at 125 g/ha [14] | pest or weed control at 31 g/ha [15] | pest or weed control at 125 g/ha [15]
30%: pest or weed control at 125 g/ha [1] | pest or weed control at 125 g/ha [5]
100%: pest or weed control at 125 g/ha [13]
50%: pest or weed control at 125 g/ha [6]
20%: pest or weed control at 125 g/ha [2] | pest or weed control at 31 g/ha [6] | pest or weed control at 31 g/ha [10]

CN1C[C@H](c2csc3c2CCC(F)(F)C3)[C@@H](C(=O)Nc2cccc(F)c2F)C1=O (racemic) [Compound 1369]
70%: pest or weed control at 125 g/ha [12]
20%: pest or weed control at 125 g/ha [2] | pest or weed control at 125 g/ha [3] | pest or weed control at 31 g/ha [4] | pest or weed control at 125 g/ha [5] | pest or weed control at 31 g/ha [6] | pest or weed control at 125 g/ha [8] | pest or weed control at 31 g/ha [8]
100%: pest or weed control at 125 g/ha [13]
30%: pest or weed control at 125 g/ha [1] | pest or weed control at 125 g/ha [10]
0%: pest or weed control at 31 g/ha [1] | pest or weed control at 31 g/ha [2] | pest or weed control at 31 g/ha [3] | pest or weed control at 31 g/ha [5] | plant injury at 125 g/ha [7] | plant injury at 31 g/ha [7] | plant injury at 125 g/ha [9] | plant injury at 31 g/ha [9] | pest or weed control at 31 g/ha [10] | pest or weed control at 31 g/ha [11] | pest or weed control at 125 g/ha [11] | pest or weed control at 31 g/ha [13] | pest or weed control at 31 g/ha [14] | pest or weed control at 125 g/ha [14] | pest or weed control at 31 g/ha [15] | pest or weed control at 125 g/ha [15]
60%: pest or weed control at 125 g/ha [6]
50%: pest or weed control at 125 g/ha [4] | pest or weed control at 31 g/ha [12]
